Experimental data from patent publication US20100016547A1, “Glycosilated Peptide and Medicine Comprising It as an Effective Ingredient” (priority 2005, published 2010).
Peptide text beside a SMILES is read from it. * marks the point of attachment. X2 = CC(=O)N[C@@H]1[C@@H](O)[C@H](O[C@@H]2O[C@H](CO[C@]3(C(=O)O)C[C@H](O)[C@@H](NC(C)=O)[C@H]([C@H](O)[C@H](O)CO)O3)[C@H](O)[C@H](O)[C@H]2O)[C@@H](CO)O[C@H]1N*; X1 = CC(=O)N[C@@H]1[C@@H](O)[C@H](O[C@@H]2O[C@H](CO)[C@H](O)[C@H](O)[C@H]2O)[C@@H](CO)O[C@H]1N*

Experiments:
[1] = molecular target: T1, GLP-1 receptor (Homo sapiens, UniProt P43220); assay: Assay for production of cAMP
Experimental: Assay for Production of cAMP
After stirring at room temperature for an hour, the cells were lysed with Triton X-100 (final concentration: 1%).
Quantity of cAMP was determined using cAMP Femtomolar Kit (CIS Bio International). The reaction solution (1 μL) was moved to a new 384-well plate and diluted by adding 9 μL of dilution buffer. Next, each 5 μL of cAMP-XL665 solution and anti-cAMP cryptate solution of the Kit was added, the mixture was incubated at room temperature for an hour, and time-resolved fluorescence was measured using RUBYstar (BMG LABTECH).

[2] = molecular target: T1, GLP-1 receptor
Experimental: After being incubated at room temperature for 2 hours, the solution was filtered through a unifilter 96GF/C plate (Perkin-Elmer) pretreated with 1% polyethylenimine containing 0.5% BSA, washed with 25 mM HEPES buffer solution (pH 7.4) containing 0.5% BSA, and radioactivity remained on the filter was measured by a gamma counter (Top Counter; Perkin-Elmer).

T1 sequence (P43220 24-463, species assumed): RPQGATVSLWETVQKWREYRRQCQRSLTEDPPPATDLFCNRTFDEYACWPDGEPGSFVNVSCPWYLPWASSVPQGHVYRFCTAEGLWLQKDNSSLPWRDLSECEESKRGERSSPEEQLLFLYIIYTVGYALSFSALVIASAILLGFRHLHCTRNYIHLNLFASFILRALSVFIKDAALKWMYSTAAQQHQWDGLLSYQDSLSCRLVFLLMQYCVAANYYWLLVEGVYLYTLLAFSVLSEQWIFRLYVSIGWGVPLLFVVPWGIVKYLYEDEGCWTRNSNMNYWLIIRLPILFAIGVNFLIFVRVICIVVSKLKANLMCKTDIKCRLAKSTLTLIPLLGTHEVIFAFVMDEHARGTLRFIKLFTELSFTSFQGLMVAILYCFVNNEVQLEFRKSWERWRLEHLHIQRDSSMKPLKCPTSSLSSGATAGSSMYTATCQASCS

Compound	EC50 [1] [nM]	IC50 [2] [nM]
H-HAEGTFTSDVSSNLEGQAAKEFIAWLVKGR-NH2 [GL19N]	0.92	11
CC[C@H](C)[C@H](NC(=O)[C@H](Cc1ccccc1)NC(=O)[C@H](CCC(=O)O)NC(=O)[C@H](CCCCN)NC(=O)[C@H](C)NC(=O)[C@H](C)NC(=O)[C@H](CCC(N)=O)NC(=O)CNC(=O)[C@H](CCC(=O)O)NC(=O)[C@H](CC(C)C)NC(=O)[C@H](Cc1ccc(O)cc1)NC(=O)[C@H](CO)NC(=O)[C@H](CO)NC(=O)[C@@H](NC(=O)[C@H](CC(=O)O)NC(=O)[C@H](CO)NC(=O)[C@@H](NC(=O)[C@H](Cc1ccccc1)NC(=O)[C@@H](NC(=O)CNC(=O)[C@H](CCC(=O)O)NC(=O)[C@H](C)NC(=O)[C@@H](N)Cc1c[nH]cn1)[C@@H](C)O)[C@@H](C)O)C(C)C)C(=O)N[C@@H](C)C(=O)N[C@@H](Cc1c[nH]c2ccccc12)C(=O)N[C@@H](CC(C)C)C(=O)N[C@H](C(=O)N[C@@H](CC(=O)N[C@@H]1O[C@H](CO)[C@@H](O[C@@H]2O[C@H](CO)[C@H](O)[C@H](O)[C@H]2O)[C@H](O)[C@H]1NC(C)=O)C(=O)NCC(=O)N[C@@H](CCCNC(=N)N)C(N)=O)C(C)C [GL34NL]	0.11	0.76
CC[C@H](C)[C@H](NC(=O)[C@H](Cc1ccccc1)NC(=O)[C@H](CCC(=O)O)NC(=O)[C@H](CCCCN)NC(=O)[C@H](C)NC(=O)[C@H](C)NC(=O)[C@H](CCC(N)=O)NC(=O)CNC(=O)[C@H](CCC(=O)O)NC(=O)[C@H](CC(C)C)NC(=O)[C@H](Cc1ccc(O)cc1)NC(=O)[C@H](CO)NC(=O)[C@H](CO)NC(=O)[C@@H](NC(=O)[C@H](CC(=O)O)NC(=O)[C@H](CO)NC(=O)[C@@H](NC(=O)[C@H](Cc1ccccc1)NC(=O)[C@@H](NC(=O)CNC(=O)[C@H](CCC(=O)O)NC(=O)[C@H](C)NC(=O)[C@@H](N)Cc1c[nH]cn1)[C@@H](C)O)[C@@H](C)O)C(C)C)C(=O)N[C@@H](C)C(=O)N[C@@H](Cc1c[nH]c2ccccc12)C(=O)N[C@@H](CC(C)C)C(=O)N[C@H](C(=O)N[C@@H](CC(=O)N[C@@H]1O[C@H](CO)[C@@H](O[C@@H]2O[C@H](CO[C@]3(C(=O)O)C[C@H](O)[C@@H](NC(C)=O)[C@H]([C@H](O)[C@H](O)CO)O3)[C@H](O)[C@H](O)[C@H]2O)[C@H](O)[C@H]1NC(C)=O)C(=O)NCC(=O)N[C@@H](CCCNC(=N)N)C(=O)N[C@@H](CC(=O)N[C@@H]1O[C@H](CO)[C@@H](O[C@@H]2O[C@H](CO[C@]3(C(=O)O)C[C@H](O)[C@@H](NC(C)=O)[C@H]([C@H](O)[C@H](O)CO)O3)[C@H](O)[C@H](O)[C@H]2O)[C@H](O)[C@H]1NC(C)=O)C(N)=O)C(C)C [GL3437NS6]	0.2	3
CC[C@H](C)[C@H](NC(=O)[C@H](Cc1ccccc1)NC(=O)[C@H](CCC(=O)O)NC(=O)[C@H](CCCCN)NC(=O)[C@H](C)NC(=O)[C@H](C)NC(=O)[C@H](CCC(N)=O)NC(=O)CNC(=O)[C@H](CCC(=O)O)NC(=O)[C@H](CC(C)C)NC(=O)[C@H](Cc1ccc(O)cc1)NC(=O)[C@H](CO)NC(=O)[C@H](CO)NC(=O)[C@@H](NC(=O)[C@H](CC(=O)O)NC(=O)[C@H](CO)NC(=O)[C@@H](NC(=O)[C@H](Cc1ccccc1)NC(=O)[C@@H](NC(=O)CNC(=O)[C@H](CCC(=O)O)NC(=O)[C@H](CC(=O)N[C@@H]1O[C@H](CO)[C@@H](O[C@@H]2O[C@H](CO)[C@H](O)[C@H](O)[C@H]2O)[C@H](O)[C@H]1NC(C)=O)NC(=O)[C@@H](N)Cc1c[nH]cn1)[C@@H](C)O)[C@@H](C)O)C(C)C)C(=O)N[C@@H](C)C(=O)N[C@@H](Cc1c[nH]c2ccccc12)C(=O)N[C@@H](CC(C)C)C(=O)N[C@H](C(=O)N[C@@H](CCCCN)C(=O)NCC(=O)N[C@@H](CCCNC(=N)N)C(N)=O)C(C)C [GL08NL]	284	> 100
CC[C@H](C)[C@H](NC(=O)[C@H](Cc1ccccc1)NC(=O)[C@H](CCC(=O)O)NC(=O)[C@H](CCCCN)NC(=O)[C@H](C)NC(=O)[C@H](C)NC(=O)[C@H](CCC(N)=O)NC(=O)CNC(=O)[C@H](CCC(=O)O)NC(=O)[C@H](CC(C)C)NC(=O)[C@H](CC(=O)N[C@@H]1O[C@H](CO)[C@@H](O[C@@H]2O[C@H](CO[C@]3(C(=O)O)C[C@H](O)[C@@H](NC(C)=O)[C@H]([C@H](O)[C@H](O)CO)O3)[C@H](O)[C@H](O)[C@H]2O)[C@H](O)[C@H]1NC(C)=O)NC(=O)[C@H](CO)NC(=O)[C@H](CO)NC(=O)[C@@H](NC(=O)[C@H](CC(=O)O)NC(=O)[C@H](CO)NC(=O)[C@@H](NC(=O)[C@H](Cc1ccccc1)NC(=O)[C@@H](NC(=O)CNC(=O)[C@H](CCC(=O)O)NC(=O)[C@H](C)NC(=O)[C@@H](N)Cc1c[nH]cn1)[C@@H](C)O)[C@@H](C)O)C(C)C)C(=O)N[C@@H](C)C(=O)N[C@@H](Cc1c[nH]c2ccccc12)C(=O)N[C@@H](CC(C)C)C(=O)N[C@H](C(=O)N[C@@H](CCCCN)C(=O)NCC(=O)N[C@@H](CCCNC(=N)N)C(N)=O)C(C)C [GL19NS6] (H-HAEGTFTSDVSSD(X2)LEGQAAKEFIAWLVKGR-NH2)	50	> 100
CC[C@H](C)[C@H](NC(=O)[C@H](Cc1ccccc1)NC(=O)[C@H](CCC(=O)O)NC(=O)[C@H](CCCCN)NC(=O)[C@H](C)NC(=O)[C@H](C)NC(=O)[C@H](CCC(N)=O)NC(=O)CNC(=O)[C@H](CCC(=O)O)NC(=O)[C@H](CC(C)C)NC(=O)[C@H](Cc1ccc(O)cc1)NC(=O)[C@H](CO)NC(=O)[C@H](CO)NC(=O)[C@@H](NC(=O)[C@H](CC(=O)O)NC(=O)[C@H](CO)NC(=O)[C@@H](NC(=O)[C@H](Cc1ccccc1)NC(=O)[C@@H](NC(=O)CNC(=O)[C@H](CCC(=O)O)NC(=O)[C@H](C)NC(=O)[C@@H](N)Cc1c[nH]cn1)[C@@H](C)O)[C@@H](C)O)C(C)C)C(=O)N[C@@H](C)C(=O)N[C@@H](Cc1c[nH]c2ccccc12)C(=O)N[C@@H](CC(C)C)C(=O)N[C@H](C(=O)N[C@@H](CC(=O)N[C@@H]1O[C@H](CO)[C@@H](O)[C@H](O)[C@H]1NC(C)=O)C(=O)NCC(=O)N[C@@H](CCCNC(=N)N)C(N)=O)C(C)C [GL34NG]	0.17	0.85
CC[C@H](C)[C@H](NC(=O)[C@H](Cc1ccccc1)NC(=O)[C@H](CCC(=O)O)NC(=O)[C@H](CCCCN)NC(=O)[C@H](C)NC(=O)[C@H](C)NC(=O)[C@H](CCC(N)=O)NC(=O)CNC(=O)[C@H](CCC(=O)O)NC(=O)[C@H](CC(C)C)NC(=O)[C@H](Cc1ccc(O)cc1)NC(=O)[C@H](CO)NC(=O)[C@H](CO)NC(=O)[C@@H](NC(=O)[C@H](CC(=O)O)NC(=O)[C@H](CO)NC(=O)[C@@H](NC(=O)[C@H](Cc1ccccc1)NC(=O)[C@@H](NC(=O)CNC(=O)[C@H](CCC(=O)O)NC(=O)[C@H](C)NC(=O)[C@@H](N)Cc1c[nH]cn1)[C@@H](C)O)[C@@H](C)O)C(C)C)C(=O)N[C@@H](C)C(=O)N[C@@H](Cc1c[nH]c2ccccc12)C(=O)N[C@@H](CC(C)C)C(=O)N[C@H](C(=O)N[C@@H](CC(=O)N[C@@H]1O[C@H](CO)[C@@H](O)[C@H](O)[C@H]1NC(C)=O)C(=O)NCC(=O)N[C@@H](CCCNC(=N)N)C(=O)N[C@@H](CC(=O)N[C@@H]1O[C@H](CO)[C@@H](O)[C@H](O)[C@H]1NC(C)=O)C(N)=O)C(C)C [GL3437NG]	0.11	0.9
CC[C@H](C)[C@H](NC(=O)[C@H](Cc1ccccc1)NC(=O)[C@H](CCC(=O)O)NC(=O)[C@H](CC(=O)N[C@@H]1O[C@H](CO)[C@@H](O[C@@H]2O[C@H](CO)[C@H](O)[C@H](O)[C@H]2O)[C@H](O)[C@H]1NC(C)=O)NC(=O)[C@H](C)NC(=O)[C@H](C)NC(=O)[C@H](CCC(N)=O)NC(=O)CNC(=O)[C@H](CCC(=O)O)NC(=O)[C@H](CC(C)C)NC(=O)[C@H](Cc1ccc(O)cc1)NC(=O)[C@H](CO)NC(=O)[C@H](CO)NC(=O)[C@@H](NC(=O)[C@H](CC(=O)O)NC(=O)[C@H](CO)NC(=O)[C@@H](NC(=O)[C@H](Cc1ccccc1)NC(=O)[C@@H](NC(=O)CNC(=O)[C@H](CCC(=O)O)NC(=O)[C@H](C)NC(=O)[C@@H](N)Cc1c[nH]cn1)[C@@H](C)O)[C@@H](C)O)C(C)C)C(=O)N[C@@H](C)C(=O)N[C@@H](Cc1c[nH]c2ccccc12)C(=O)N[C@@H](CC(C)C)C(=O)N[C@H](C(=O)N[C@@H](CCCCN)C(=O)NCC(=O)N[C@@H](CCCNC(=N)N)C(N)=O)C(C)C [GL26NL]	0.33	2
CC[C@H](C)[C@H](NC(=O)[C@H](Cc1ccccc1)NC(=O)[C@H](CCC(=O)O)NC(=O)[C@H](CCCCN)NC(=O)[C@H](C)NC(=O)[C@H](C)NC(=O)[C@H](CCC(N)=O)NC(=O)CNC(=O)[C@H](CCC(=O)O)NC(=O)[C@H](CC(C)C)NC(=O)[C@H](CC(=O)N[C@@H]1O[C@H](CO)[C@@H](O[C@@H]2O[C@H](CO)[C@H](O)[C@H](O)[C@H]2O)[C@H](O)[C@H]1NC(C)=O)NC(=O)[C@H](CO)NC(=O)[C@H](CO)NC(=O)[C@@H](NC(=O)[C@H](CC(=O)O)NC(=O)[C@H](CO)NC(=O)[C@@H](NC(=O)[C@H](Cc1ccccc1)NC(=O)[C@@H](NC(=O)CNC(=O)[C@H](CCC(=O)O)NC(=O)[C@H](C)NC(=O)[C@@H](N)Cc1c[nH]cn1)[C@@H](C)O)[C@@H](C)O)C(C)C)C(=O)N[C@@H](C)C(=O)N[C@@H](Cc1c[nH]c2ccccc12)C(=O)N[C@@H](CC(C)C)C(=O)N[C@H](C(=O)N[C@@H](CCCCN)C(=O)NCC(=O)N[C@@H](CCCNC(=N)N)C(N)=O)C(C)C [GL19NL] (H-HAEGTFTSDVSSD(X1)LEGQAAKEFIAWLVKGR-NH2; N-terminus assumed)	8.3	38
